Data taken from patent US11459315B2, “Modulators of methyl modifying enzymes, compositions and uses thereof” (Constellation Pharmaceuticals, Inc., priority 2017, dated 2022).
Where two headings read alike, the source gives them in different places.

Legend:
PRC2 containing wt EZH2 = PRC2 containing wt EZH2 (Homo sapiens (Human), UniProt Q15910); test: EZH2 biochemical assay (IC50), 3H-SAM incorporation into biotinylated H3 peptide
In short: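 Activity was measured as ³H-methyl transfer to a biotinylated H3K27me1 peptide over 18-22 h at room temperature, with capture on streptavidin flash plates. The 30 pM wt-EZH2 PRC2 complex was first pre-incubated 3-5 h with compound, 450 nM SAM/450 nM ³H-SAM and 2 µM H3K27me3 activator (pH 8.5, 0.8% DMSO). Four-parameter fits gave IC50.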

[1] = test system: H3K27me3 mark in HeLa cells (EZH2); test: H3K27me3 Alpha Hela Assay (AlphaLISA); assay type: cell-based; settings: HeLa cells, 72 hrs, read-out: EZH2 Cell H3K27me3 Alpha HeLa (EC50 K27me3)
In short: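 HeLa cells (1,000/well) treated with ten 3-fold compound doses for 72 h at 37 °C; lysates extracted and H3K27me3 detected by AlphaLISA with anti-K27me3 acceptor beads, biotinylated anti-H3 (3 nM) and streptavidin donor beads. EC50 from DMSO-normalized dose-response curves; duplicate plate assessed viability.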

[2] = EZH2 (IC50), 30 pM PRC2 containing wt EZH2; 3-5 h pre-incubation
[3] = read-out: EZH2 (IC50); 30 pM PRC2 containing wt EZH2; 3-5 h pre-incubation
[4] = 30 pM PRC2 containing wt EZH2; 3-5 h pre-incubation; read-out: EZH2 (IC50)

Sequence of PRC2 containing wt EZH2 (Q15910 whole entry): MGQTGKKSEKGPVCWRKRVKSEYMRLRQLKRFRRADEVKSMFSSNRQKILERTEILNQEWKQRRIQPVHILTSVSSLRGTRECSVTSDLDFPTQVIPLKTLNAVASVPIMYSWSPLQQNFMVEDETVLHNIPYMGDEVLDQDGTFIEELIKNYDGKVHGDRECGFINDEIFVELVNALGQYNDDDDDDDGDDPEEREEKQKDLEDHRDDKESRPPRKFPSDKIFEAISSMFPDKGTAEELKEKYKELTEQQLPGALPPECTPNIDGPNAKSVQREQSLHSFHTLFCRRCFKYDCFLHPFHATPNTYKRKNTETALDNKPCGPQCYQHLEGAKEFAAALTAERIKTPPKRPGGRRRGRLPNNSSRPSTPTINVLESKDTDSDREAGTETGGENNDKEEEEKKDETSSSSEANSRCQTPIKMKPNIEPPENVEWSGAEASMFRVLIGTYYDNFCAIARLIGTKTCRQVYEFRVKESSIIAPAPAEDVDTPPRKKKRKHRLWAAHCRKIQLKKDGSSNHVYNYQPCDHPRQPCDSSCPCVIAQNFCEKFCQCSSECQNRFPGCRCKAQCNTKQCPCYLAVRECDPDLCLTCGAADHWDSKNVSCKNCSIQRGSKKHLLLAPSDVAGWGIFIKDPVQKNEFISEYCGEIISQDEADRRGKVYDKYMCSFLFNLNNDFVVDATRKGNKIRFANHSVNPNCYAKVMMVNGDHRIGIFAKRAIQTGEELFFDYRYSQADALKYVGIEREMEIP
Sequence of PRC2 containing wt EZH2 (O75530 whole entry partner): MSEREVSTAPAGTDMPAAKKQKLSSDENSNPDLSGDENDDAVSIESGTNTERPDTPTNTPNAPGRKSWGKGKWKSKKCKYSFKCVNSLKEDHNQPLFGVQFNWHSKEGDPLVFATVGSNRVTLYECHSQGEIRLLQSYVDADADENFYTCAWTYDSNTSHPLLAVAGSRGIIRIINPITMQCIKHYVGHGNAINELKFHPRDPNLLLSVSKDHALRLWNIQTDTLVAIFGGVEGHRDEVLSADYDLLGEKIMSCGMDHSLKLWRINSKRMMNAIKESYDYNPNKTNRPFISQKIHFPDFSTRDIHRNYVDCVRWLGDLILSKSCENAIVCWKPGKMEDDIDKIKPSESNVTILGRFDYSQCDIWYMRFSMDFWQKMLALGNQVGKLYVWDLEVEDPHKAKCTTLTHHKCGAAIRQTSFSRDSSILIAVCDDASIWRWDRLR
Sequence of PRC2 containing wt EZH2 (Q15022 whole entry partner): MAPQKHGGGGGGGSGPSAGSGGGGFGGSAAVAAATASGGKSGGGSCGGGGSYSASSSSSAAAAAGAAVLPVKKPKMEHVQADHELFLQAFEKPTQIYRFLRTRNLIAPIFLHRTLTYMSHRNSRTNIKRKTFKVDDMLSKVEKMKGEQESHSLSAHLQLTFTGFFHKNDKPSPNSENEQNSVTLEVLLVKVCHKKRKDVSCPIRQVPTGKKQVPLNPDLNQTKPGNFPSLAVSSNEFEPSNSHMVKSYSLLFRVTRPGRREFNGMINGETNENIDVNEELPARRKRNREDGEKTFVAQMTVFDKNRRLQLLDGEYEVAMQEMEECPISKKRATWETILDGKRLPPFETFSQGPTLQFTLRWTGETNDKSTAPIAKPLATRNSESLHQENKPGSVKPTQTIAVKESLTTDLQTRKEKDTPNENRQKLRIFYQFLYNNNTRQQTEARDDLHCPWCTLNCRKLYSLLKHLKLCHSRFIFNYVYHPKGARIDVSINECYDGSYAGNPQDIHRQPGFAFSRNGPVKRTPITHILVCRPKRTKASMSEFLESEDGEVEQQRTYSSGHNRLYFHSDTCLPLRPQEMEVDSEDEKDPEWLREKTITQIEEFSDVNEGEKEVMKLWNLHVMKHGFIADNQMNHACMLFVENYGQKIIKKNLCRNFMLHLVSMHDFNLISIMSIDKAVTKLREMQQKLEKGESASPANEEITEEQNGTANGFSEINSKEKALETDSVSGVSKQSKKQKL
Sequence of PRC2 containing wt EZH2 (Q09028 whole entry partner): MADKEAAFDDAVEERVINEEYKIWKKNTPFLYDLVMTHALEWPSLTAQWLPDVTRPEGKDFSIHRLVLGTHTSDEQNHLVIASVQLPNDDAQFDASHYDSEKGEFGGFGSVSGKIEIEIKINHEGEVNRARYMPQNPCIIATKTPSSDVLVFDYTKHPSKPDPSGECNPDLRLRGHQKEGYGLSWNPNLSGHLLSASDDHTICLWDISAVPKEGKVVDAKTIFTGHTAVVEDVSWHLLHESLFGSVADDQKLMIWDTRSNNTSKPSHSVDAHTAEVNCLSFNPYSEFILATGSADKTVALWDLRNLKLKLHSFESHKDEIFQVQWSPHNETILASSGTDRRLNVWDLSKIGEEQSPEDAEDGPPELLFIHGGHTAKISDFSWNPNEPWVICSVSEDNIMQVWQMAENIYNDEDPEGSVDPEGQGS
Sequence of PRC2 containing wt EZH2 (Q6ZN18 whole entry partner): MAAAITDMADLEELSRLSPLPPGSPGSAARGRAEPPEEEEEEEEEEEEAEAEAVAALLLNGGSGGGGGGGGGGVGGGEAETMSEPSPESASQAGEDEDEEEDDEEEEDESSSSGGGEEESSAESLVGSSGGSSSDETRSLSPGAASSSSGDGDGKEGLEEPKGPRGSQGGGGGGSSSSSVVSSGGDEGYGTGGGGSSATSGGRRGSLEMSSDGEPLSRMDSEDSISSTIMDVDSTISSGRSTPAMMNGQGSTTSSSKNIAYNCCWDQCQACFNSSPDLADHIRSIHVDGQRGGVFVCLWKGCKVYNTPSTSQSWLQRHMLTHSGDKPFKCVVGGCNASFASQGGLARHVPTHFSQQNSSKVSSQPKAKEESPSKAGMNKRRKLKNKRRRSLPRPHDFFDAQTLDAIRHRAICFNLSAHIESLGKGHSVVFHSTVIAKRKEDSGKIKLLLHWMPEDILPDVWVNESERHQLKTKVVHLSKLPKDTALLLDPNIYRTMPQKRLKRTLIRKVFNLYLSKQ

SMILES	IC50 (PRC2 containing wt EZH2; [2]) [µM]	EC50 ([1]; Homo sapiens, HeLa, 72 h) [µM]	IC50 (PRC2 containing wt EZH2; [3]) [µM]	EC50 [1] [µM]	IC50 (PRC2 containing wt EZH2; [4]) [µM]
COC1CC(N2CCC([C@@H](C)n3c(C)c(C(=O)NCc4c(SC)cc(C)[nH]c4=O)c4ccccc43)CC2)C1 (stereo partly drawn) [Example 140, (R)-1-(1-(1-(3-methoxycyclobutyl)piperidin-4-yl)ethyl)-2-methyl-N-((6-methyl-4-(methylthio)-2-oxo-1,2-dihydropyridin-3-yl)methyl)-1H-indole-3-carboxamide]	< 0.0005	0.01 to 0.1			
CSc1cc(C)[nH]c(=O)c1CNC(=O)c1c(C)n([C@H](C)C2CCC(C)(O)CC2)c2ccccc12 (single isomer, unassigned) [22 (isomer 2)]			< 0.0005	< 0.01	
CSc1cc(C)[nH]c(=O)c1CNC(=O)c1c(C)n([C@H](C)C2CCC(N3CCCC3=O)CC2)c2ccccc12 (stereo partly drawn) [Example 72, 2-methyl-N-((6-methyl-4-(methylthio)-2-oxo-1,2-dihydropyridin-3-yl)methyl)-1-((R)-1-(4-(2-oxopyrrolidin-1-yl)cyclohexyl)ethyl)-1H-indole-3-carboxamide]		0.01 to 0.1			< 0.0005
CSc1cc(C)[nH]c(=O)c1CNC(=O)c1c(C)n([C@H](C)C2CCC(N3CC(F)(C4CC4)C3)CC2)c2ncccc12 (stereo partly drawn) [Example 157, 1-((R)-1-(4-(3-cyclopropyl-3-fluoroazetidin-1-yl)cyclohexyl)ethyl)-2-methyl-N-((6-methyl-4-(methylthio)-2-oxo-1,2-dihydropyridin-3-yl)methyl)-1H-pyrrolo[2,3-b]pyridine-3-carboxamide]		0.01 to 0.1			< 0.0005
CSc1cc(C)[nH]c(=O)c1CNC(=O)c1c(C)n([C@H](C)C2CCC(OC(=O)C(C)C)CC2)c2ccccc12 (single isomer, unassigned) [144 (isomer 2)]				< 0.01	< 0.0005
CSc1cc(C)[nH]c(=O)c1CNC(=O)c1c(C)n([C@H](C)C2CCC(NC3(C(F)(F)F)COC3)CC2)c2ncccc12 (single isomer, unassigned) [163 (isomer 2)]				0.01 to 0.1	0.0005 to 0.005
CSc1cc(C)[nH]c(=O)c1CNC(=O)c1c(C)n([C@H](C)C2CCC(N3CC[C@@H](F)C3)CC2)c2ccccc12 (single isomer, unassigned) [79 (isomer 1)]	< 0.0005	< 0.01			
CSc1cc(C)[nH]c(=O)c1CNC(=O)c1c(C)n([C@H](C)C2CCC(N3CC(OC4CCC4)C3)CC2)c2ncc(Cl)cc12 (stereo partly drawn) [Example 126, 5-chloro-1-((R)-1-(4-(3-cyclobutoxyazetidin-1-yl)cyclohexyl)ethyl)-2-methyl-N-((6-methyl-4-(methylthio)-2-oxo-1,2-dihydropyridin-3-yl)methyl)-1H-pyrrolo[2,3-b]pyridine-3-carboxamide]		< 0.01			< 0.0005
CSc1cc(C)[nH]c(=O)c1CNC(=O)c1c(C)n([C@H](C)C2CCC(NC3(CF)COC3)CC2)c2ncccc12 (single isomer, unassigned) [155 (isomer 2)]				0.01 to 0.1	0.0005 to 0.005
CSc1cc(C)[nH]c(=O)c1CNC(=O)c1c(C)n([C@H](C)C2CCC(O)CC2)c2ccccc12 (single isomer, unassigned) [19 (isomer 2)]			< 0.0005	< 0.01	
CSc1cc(C)[nH]c(=O)c1CNC(=O)c1c(C)n([C@H](C)C2CCC(N3CC(OC(F)F)C3)CC2)c2c(F)cccc12 (single isomer, unassigned) [121 (isomer 2)]				> 0.1	0.0005 to 0.005
CCS(=O)(=O)N1CCC([C@@H](C)n2c(C)c(C(=O)NCc3c(SC)cc(C)[nH]c3=O)c3ccccc32)CC1 [Example 146, (R)-1-(1-(1-(ethylsulfonyl)piperidin-4-yl)ethyl)-2-methyl-N-((6-methyl-4-(methylthio)-2-oxo-1,2-dihydropyridin-3-yl)methyl)-1H-indole-3-carboxamide]		< 0.01			< 0.0005
CSc1cc(C)[nH]c(=O)c1CNC(=O)c1c(C)n([C@H](C)C2CCC(N3CC(OC(C)(C)C)C3)CC2)c2ncc(Cl)cc12 (stereo partly drawn) [Example 129, 1-((R)-1-(4-(3-(tert-butoxy)azetidin-1-yl)cyclohexyl)ethyl)-5-chloro-2-methyl-N-((6-methyl-4-(methylthio)-2-oxo-1,2-dihydropyridin-3-yl)methyl)-1H-pyrrolo[2,3-b]pyridine-3-carboxamide]		< 0.01			< 0.0005
CSc1cc(C)[nH]c(=O)c1CNC(=O)c1c(C)n([C@H](C)C2CCC(N3CC(OC(F)F)C3)CC2)c2cc(F)ccc12 (stereo partly drawn) [Example 29, 1-((R)-1-(4-(3-(difluoromethoxy)azetidin-1-yl)cyclohexyl)ethyl)-6-fluoro-2-methyl-N-((6-methyl-4-(methylthio)-2-oxo-1,2-dihydropyridin-3-yl)methyl)-1H-indole-3-carboxamide]		< 0.01			< 0.0005
CSc1cc(C)[nH]c(=O)c1CNC(=O)c1c(C)n([C@H](C)C2CCC(N3CC(C(F)(F)F)C3)CC2)c2ncccc12 (stereo partly drawn) [Example 110, 2-methyl-N-((6-methyl-4-(methylthio)-2-oxo-1,2-dihydropyridin-3-yl)methyl)-1-((R)-1-(4-(3-(trifluoromethyl)azetidin-1-yl)cyclohexyl)ethyl)-1H-pyrrolo[2,3-b]pyridine-3-carboxamide]		0.01 to 0.1			< 0.0005
CSc1cc(C)[nH]c(=O)c1CNC(=O)c1c(C)n([C@H](C)C2CCN(CC(F)(F)F)CC2)c2cccc(Br)c12 [Example 128, (R)-4-bromo-2-methyl-N-((6-methyl-4-(methylthio)-2-oxo-1,2-dihydropyridin-3-yl)methyl)-1-(1-(1-(2,2,2-trifluoroethyl)piperidin-4-yl)ethyl)-1H-indole-3-carboxamide]	0.0005 to 0.005	0.01 to 0.1			
CSc1cc(C)[nH]c(=O)c1CNC(=O)c1c(C)n([C@H](C)C2OCC(N3CC(F)(F)C3)CO2)c2ccccc12 (single isomer, unassigned) [85 (isomer 2)]	0.0005 to 0.005			> 0.1	
CSc1cc(C)[nH]c(=O)c1CNC(=O)c1c(C)n([C@H](C)C2CCC(N3CC(OC4CC4)C3)CC2)c2ncncc12 (single isomer, unassigned) [102 (isomer 1)]		< 0.01			< 0.0005
CSc1cc(C)[nH]c(=O)c1CNC(=O)c1c(C)n([C@H](C)C2COC2)c2ccccc12 (single isomer, unassigned) [14 (isomer 1)]	< 0.0005	0.01 to 0.1			
COC1CN(C2CCC([C@@H](C)n3c(C)c(C(=O)NCc4c(SC5CC5)cc(C)[nH]c4=O)c4ccccc43)CC2)C1 (stereo partly drawn) [Example 99, N-((4-(cyclopropylthio)-6-methyl-2-oxo-1,2-dihydropyridin-3-yl)methyl)-1-((R)-1-(4-(3-methoxyazetidin-1-yl)cyclohexyl)ethyl)-2-methyl-1H-indole-3-carboxamide]		0.01 to 0.1			< 0.0005
CSc1cc(C)[nH]c(=O)c1CNC(=O)c1c(C)n([C@H](C)C2CCC(N3CC(OC(F)(F)F)C3)CC2)c2ncncc12 (single isomer, unassigned) [123 (isomer 1)]		< 0.01			< 0.0005
COC1CN(C2CCC([C@@H](C)n3c(C)c(C(=O)NCc4c(SC)cc(C)[nH]c4=O)c4cc(Cl)cnc43)CC2)C1 (single isomer, unassigned) [106 (isomer 1)]		< 0.01			< 0.0005
CSc1cc(C)[nH]c(=O)c1CNC(=O)c1c(C)n([C@H](C)C2CCC(N3CC(OC(F)F)C3)CC2)c2ncc(C)cc12 (stereo partly drawn) [Example 115, 1-((R)-1-(4-(3-(difluoromethoxy)azetidin-1-yl)cyclohexyl)ethyl)-2,5-dimethyl-N-((6-methyl-4-(methylthio)-2-oxo-1,2-dihydropyridin-3-yl)methyl)-1H-pyrrolo[2,3-b]pyridine-3-carboxamide]		< 0.01			< 0.0005
CSc1cc(C)[nH]c(=O)c1CNC(=O)c1c(C)n([C@H](C)C2CCN(C3CC3)CC2)c2ccccc12 [Example 48, (R)-1-(1-(1-cyclopropylpiperidin-4-yl)ethyl)-2-methyl-N-((6-methyl-4-(methylthio)-2-oxo-1,2-dihydropyridin-3-yl)methyl)-1H-indole-3-carboxamide]	< 0.0005	< 0.01			
CSc1cc(C)[nH]c(=O)c1CNC(=O)c1c(C)n([C@H](C)C2CCC(NC3(C(F)(F)F)COC3)CC2)c2ncccc12 (single isomer, unassigned) [163 (isomer 1)]		< 0.01			< 0.0005
CSc1cc(C)[nH]c(=O)c1CNC(=O)c1c(C)n([C@H](C)C2CCC(N3CC(OC(F)(F)F)C3)CC2)c2ncncc12 (single isomer, unassigned) [123 (isomer 2)]				< 0.01	< 0.0005
CSc1cc(C)[nH]c(=O)c1CNC(=O)c1c(C)n([C@H](C)C2CCC(N3CC(OC(F)(F)F)C3)CC2)c2ccccc12 (single isomer, unassigned) [21 (isomer 1)]		< 0.01			< 0.0005
COCCOC1CCC([C@@H](C)n2c(C)c(C(=O)NCc3c(SC)cc(C)[nH]c3=O)c3ccccc32)CC1 (single isomer, unassigned) [67 (isomer 2)]	< 0.0005			< 0.01	
CSc1cc(C)[nH]c(=O)c1CNC(=O)c1c(C)n([C@H](C)C2OCC(N3CCC3(C)C)CO2)c2ccccc12 (single isomer, unassigned) [15 (isomer 1)]	< 0.0005			< 0.01	
